Experimental data from patent US8729048B2, “Methods and materials for assessing responsiveness to PARP inhibitors and platinating agents” (Mayo Foundation for Medical Education and Research, priority 2011, dated 2014).

Assays:
Type in all cases: cell-based
[1] = test system: ATM-deficient GM16666 fibroblasts; test: Clonogenic assay, GM16666; conditions: GM16666 cells versus ATM-reconstituted GM16667, 48 hours
Procedure: (§1) FIG. 6. […] (A) BRCA1-deficient HCC1937 and BRCA1-reconstituted HCC1937/BRCA1 cells were continuously exposed to ABT-888 in the presence or absence of 125 nM DNA-PKi and assayed for clonogenic survival. Inset, Western blots of cell lysates from HCC1937 and HCC1937/BRCA1. (B) Western blots of M059J and reconstituted M059J+DNA-PKcs lines showing the restoration of DNA-PK expression and the shRNA-mediated knockdown of BRCA1. (C) Clonogenic survival of shRNA transfected M059J/M059J+DNA-PKcs lines treated with ABT-888 for 72 hours. (D) Clonogenic survival of ATM-deficient GM16666 or ATM-reconstituted GM16667 fibroblasts. Cells were exposed to ABT-888 for 48 hours in the presence or absence of 250 nM DNA-PKi, washed, and allowed to form colonies. Inset, Western blots of lysates from GM16666 and GM16667 fibroblasts. […] Results are representative of 3 independent experiments.
(§2) Colony formation assays were performed on siRNA-transfected PEO1 and PEO4 cells 48 hours after the second transfection. Cells were trypsinized and plated at 750 cells/plate in triplicate 60-mm dishes containing medium A, allowed to grow 10-14 days, and stained with Coomassie Brilliant Blue. Colonies containing ≧50 cells were scored manually. […]

[2] = test system: MMEJ activity in PEO1 cells; test: Microhomology mediated end-joining assay (MMEJ), PEO1; conditions: 72 hours
Excerpt: FIG. 11. PARP inhibition fails to induce microhomology-mediated end-joining (MMEJ). (A) Schematic of the reporter substrate used to assay for MMEJ activity. Cleavage of pDVG94 with EcoRV and AfeI creates a blunt-ended linearized substrate, with identical 6-bp ends. Direct joining by NHEJ will result in maintenance of both repeats, but MMEJ will excise one repeat, introducing a new BstXI site. PCR across recircularized substrate produces a product of 180 bp, which can be cut into 120 and 60 bp fragments if the BstXI site was created. This figure is adapted from a figure provided elsewhere (Verkaik et al., Eur. J. Immunol., 32:701-709 (2002)). (B) and (C) Agarose gel from a representative MMEJ assay. PEO1 (B, lanes 1-10) and PEO4 (C) cells were treated with increasing concentrations of ABT-888 following transfection with linearized pDVG94. The size of the initial PCR product (180 bp) as well as BstXI cleaved products (120 bp and 60 bp) are indicated. As a positive and negative control, a cell line previously documented to undergo MMEJ (Lou et al., J. Biol. Chem., 279:46359-46362 (2004)), M059J (B, lanes 11 and 12), and a MMEJ-negative line, M059J+DNA-PKcs (B, lanes 13 and 14) were used. Images were captured from one gel and cut to create two panels. […]

[3] = test system: HPRT locus in BRCA2-mutant CAPAN1 cells; test: HPRT mutagenesis assay; conditions: 250 nM DNA-PKi, 72 hours
Procedure: FIG. 4. PARP inhibitor-induced chromosomal derangement and genomic instability is dependent on DNA-PK activity. (A) Representative images of metaphase spreads from cells treated with diluent (0.2% DMSO), 500 nM DNA-PKi, 2.5 μM ABT-888, or both ABT-888 and DNA-PKi for 72 hours. Chromosomal breaks are marked with arrowheads and radial structures are marked with asterisks. (B) Quantitation of data from (A) showing average radial chromosomes per cell (n=100 for each data point pooled from two separate experiments, error bars represent SEM). † indicate values that are zero. (C) Calculated mutagenesis frequency in BRCA2-mutant CAPAN1 cells after control treatment or exposure to ABT-888 with or without 250 nM DNA-PKi. Each bar represents the mean±SEM of 5-8 plates.
HPRT mutagenesis was performed as described elsewhere (Hashimoto et al., Clin. Cancer Res., 1:369-376 (1995)). […] Each sample group was trypsinized, replated at 10^6 cells/100-mm dish in medium E supplemented with 15 μM 6-TG, cultured until colonies were visible (14-21 days), and analyzed manually for colony formation. […] Mutagenesis frequencies were calculated by dividing the number of colonies on 6-TG-treated plates by the total number of possible colonies (10^6 cells×plating efficiency).

[4] = test system: BRCA1-deficient HCC1937 cells; test: Clonogenic assay, HCC1937; conditions: continuous exposure, 125 nM DNA-PKi
Procedure: as §1, §2

## C[C@]1(c2nc3c(C(N)=O)cccc3[nH]2)CCCN1 [ABT-888]
[1]
  clonogenic sensitivity: heightened sensitivity
[2]
  induction of MMEJ: not detected

## CCN1CCN(CC(=O)Nc2ccc(-c3cccc4c(=O)cc(N5CCOCC5)oc34)c3sc4ccccc4c23)CC1 [AZ 12594248]
[3]
  effect of co-administration on PARP inhibitor-induced HPRT mutation frequency: markedly reduced the mutation frequency
[4]
  effect on ABT-888 sensitivity (clonogenic survival): diminished ABT-888 sensitivity
